The values that follow come from DBAASP.

In general, MIC refers to the least concentration at which growth counts as inhibited. Low readings indicate a more susceptible organism, high ones a less susceptible organism.

Values after ≈ are worked out from the molar mass of the structure shown.

Among the test systems are Klebsiella pneumoniae; Staphylococcus aureus; Enterobacter cloacae; Fusarium oxysporum; Penicillium crustosum; Micrococcus luteus; Vibrio penaeicida; Salmonella typhimurium; Botrytis cinerea; Vibrio harveyi; Vibrio anguillarum; Vibrio alginolyticus; Bacillus megaterium; Aerococcus viridans; Escherichia coli 363; Nocardia asteroides; Candida glabrata 090902.
Experiment in all cases: ≥ marks a high value that may be exact or a test limit, other limits are often not marked, values filed in µg/mL are converted to µM
The subject of test [1] is Staphylococcus aureus PBEL.
In test [2] the test system is Listeria monocytogenes ATCC 19115.
In test [3] the test system is Staphylococcus epidermidis KCTC 3096.
Test [4] relates to Aspergillus flavus KCTC 6905.
Test [5] concerns Aspergillus parasiticus KCTC 6598.
The subject of test [6] is Aspergillus fumigatus KCTC 6145.
The subject of test [7] is Pseudomonas aeruginosa KCTC 1637.
In test [8] the test system is Trichosporon beigelii KCTC 7707.
The test system of test [9] is Salmonella typhimurium KCTC 1926.
For test [10], the system named is Bacillus subtilis KCTC 1998.
In test [11] the test system is Escherichia coli CCARM 1238.
The test system of test [12] is Bacillus subtilis KCTC 1918.
Test [13] has as its system Candida albicans KCTC 7270.
Test [14] has as its system Escherichia coli CCARM 1229.
Test [15] concerns Staphylococcus epidermidis ATCC 12228.
The subject of test [16] is Salmonella typhimurium CCARM 8013.
Test [17] concerns Staphylococcus aureus CCARM 3114.
Test [18] has as its system Staphylococcus aureus CCARM 3089.
Test [19] relates to Proteus vulgaris KCTC 2433.
The test system of test [20] is Pseudomonas aeruginosa 4007.
Test [21] concerns Listeria monocytogenes KCTC 3710.
Test [22] deals with Pseudomonas aeruginosa 3547.
Test [23] relates to Salmonella typhimurium CCARM 8009.
Test [24] deals with Aspergillus awamori KCTC 6915.
The test system of test [25] is Pseudomonas aeruginosa ATCC 15692.
The subject of test [26] is Candida albicans ATCC 37092.
Test [27] has as its system Staphylococcus aureus ATCC 29213.
Test [28] has as its system Escherichia coli ATCC 25922.
Test [29] concerns Pectobacterium carotovorum.
The test system of test [30] is Staphylococcus epidermidis.
For test [31], the system named is Staphylococcus aureus A170.
Test [32] concerns Enterococcus faecalis 981.
The test system of test [33] is Enterococcus faecium 091299.
Test [34] concerns Staphylococcus aureus ATCC 25923.
Test [35] has as its system Enterobacter cloacae CGMCC 1.57.
Test [36] deals with Psychrobacter faecalis X29.

In the case of `CC[C@H](C)[C@H](NC(=O)[C@H](CCCCN)NC(=O)[C@H](CCCCN)NC(=O)[C@H](C)NC(=O)[C@H](CC(C)C)NC(=O)[C@H](CCCCN)NC(=O)[C@H](CCCCN)NC(=O)[C@H](CC(C)C)NC(=O)[C@H](CCCN=C(N)N)NC(=O)[C@H](CCCCN)NC(=O)[C@H](C)N)C(=O)N[C@@H](Cc1c[nH]c2ccccc12)C(=O)N[C@@H](CCCCN)C(=O)N[C@@H](Cc1c[nH]c2ccccc12)C(=O)N[C@@H](CCCCN)C(N)=O` [AKRLKKLAKKIWKWK], the MIC was found to be 1 µM (≈ 1.92 µg/mL) in test [1]; 2 µM (≈ 3.85 µg/mL) in test [2]; 2.83 µM (≈ 5.44 µg/mL) in test [3]; 8 µM (≈ 15.4 µg/mL) in test [4]; 8 µM (≈ 15.4 µg/mL) in [5]; 4 µM (≈ 7.7 µg/mL) in test [6]. Further, the MIC in [7] was 2 µM (≈ 3.85 µg/mL); in test [8] it was 16 µM (≈ 30.8 µg/mL); in test [9] it was 1.41 µM (≈ 2.72 µg/mL); in [10], 2 µM (≈ 3.85 µg/mL); in test [11], 2 µM (≈ 3.85 µg/mL); in test [12] it was 2 µM (≈ 3.85 µg/mL). In addition, the MIC in [13] stood at 8 µM (≈ 15.4 µg/mL); in [14] it was 1.41 µM (≈ 2.72 µg/mL); in [15], 2.83 µM (≈ 5.44 µg/mL); in test [16], 1 µM (≈ 1.92 µg/mL); in [17] it was 4 µM (≈ 7.7 µg/mL); in [18] it was 2 µM (≈ 3.85 µg/mL). The MIC in test [19] stood at 2.83 µM (≈ 5.44 µg/mL); in [20], 1 µM (≈ 1.92 µg/mL); in [21] it was 2 µM (≈ 3.85 µg/mL); in test [22] it was 2.83 µM (≈ 5.44 µg/mL); in test [23] it was 2 µM (≈ 3.85 µg/mL); in [24] it was 8 µM (≈ 15.4 µg/mL). Further, the MIC in test [25] stood at 2 µM (≈ 3.85 µg/mL).

Take `CC(C)C[C@H](NC(=O)[C@@H]1CCCN1C(=O)[C@H](CCCN=C(N)N)NC(=O)[C@@H]1CCCN1C(=O)[C@H](CCCN=C(N)N)NC(=O)[C@@H]1CCCN1)C(=O)N1CCC[C@H]1C(=O)N[C@@H](Cc1ccccc1)C(=O)N1CCC[C@H]1C(=O)N[C@@H](CCCN=C(N)N)C(=O)N1CCC[C@H]1C(=O)NCC(=O)O` [PRPRPLPFPRPG]: the MIC in [26] was at least 500 µM; in [27], over 500 µM; in test [28] it was over 500 µM.

For the compound `CSCC[C@H](NC(=O)[C@H](CCCN=C(N)N)NC(=O)CNC(=O)[C@H](CCCCN)NC(=O)[C@H](Cc1ccc(O)cc1)NC(=O)[C@H](Cc1ccc(O)cc1)NC(=O)[C@@H](NC(=O)[C@H](CCC(N)=O)NC(=O)[C@H](Cc1ccccc1)NC(=O)[C@H](CCCN=C(N)N)NC(=O)[C@H](CCCCN)NC(=O)[C@H](CC(C)C)NC(=O)[C@H](Cc1ccc(O)cc1)NC(=O)[C@@H]1CCCN1C(=O)[C@@H](N)CCCCN)C(C)C)C(=O)N[C@@H](Cc1c[nH]c2ccccc12)C(=O)N[C@@H](CS)C(=O)O` [KPYLKRFQVYYKGRMWC], the MIC against Klebsiella pneumoniae is 25 µM (≈ 56.7 µg/mL); with Staphylococcus aureus, 50 µM (≈ 113 µg/mL); in the test on Enterobacter cloacae, 25 µM (≈ 56.7 µg/mL); in the test with Fusarium oxysporum, 12.5 µM (≈ 28.3 µg/mL); in the test with Penicillium crustosum, 25 µM (≈ 56.7 µg/mL); with Micrococcus luteus, 6.25 µM (≈ 14.2 µg/mL). In addition, the MIC against Vibrio penaeicida was at least 100 µM; in the test with Salmonella typhimurium, 25 µM (≈ 56.7 µg/mL); with Botrytis cinerea it was 12.5 µM (≈ 28.3 µg/mL); in the test with Vibrio harveyi it was at least 50 µM; in the test on Vibrio anguillarum it was at least 100 µM; in the test on Vibrio alginolyticus, 25 µM (≈ 56.7 µg/mL). For the same compound, the MIC is 3.12 µM (≈ 7.07 µg/mL) against Bacillus megaterium, 6.25 µM (≈ 14.2 µg/mL) in the test with Aerococcus viridans, at least 50 µM in test [29] and 25 µM (≈ 56.7 µg/mL) against Escherichia coli 363.

`CC[C@H](C)[C@H](NC(=O)[C@@H](NC(=O)[C@@H](NC(=O)[C@@H]1CCCN1C(=O)[C@H](CC(C)C)NC(=O)[C@@H](N)CC(C)C)[C@@H](C)CC)C(C)C)C(=O)N[C@@H](CC(N)=O)C(=O)N[C@@H](CC(C)C)C(=O)N[C@@H](CC(C)C)C(=O)N[C@@H](CCCCN)C(=O)N[C@@H](CO)C(=O)N[C@@H](CC(C)C)C(=O)N[C@@H](CC(C)C)C(=O)O` [LLPIVINLLKSLL]: the MIC in [30] amounted to 13.8 µM (≈ 20 µg/mL); in [31] it was 6.9 µM (≈ 10 µg/mL).

Regarding `CC[C@H](C)[C@H](NC(=O)[C@H](C)NC(=O)[C@@H](NC(=O)[C@@H]1CCCN1C(=O)[C@H](CC(C)C)NC(=O)[C@@H](NC(=O)[C@H](Cc1cnc[nH]1)NC(=O)[C@H](C)NC(=O)[C@H](C)NC(=O)[C@@H](NC(=O)[C@H](CCCCN)NC(=O)[C@H](CC(C)C)NC(=O)[C@@H](NC(=O)[C@H](C)NC(=O)[C@@H]1CCCN1C(=O)[C@H](CC(C)C)NC(=O)[C@@H](N)Cc1ccccc1)C(C)C)C(C)C)[C@@H](C)CC)[C@@H](C)O)C(=O)N[C@H]1CSSC[C@@H](C(=O)O)NC(=O)[C@H](CCCN=C(N)N)NC(=O)[C@H](CCCN=C(N)N)NC(=O)[C@H](CO)NC(=O)[C@H]([C@@H](C)CC)NC(=O)[C@H](C)NC1=O` [FLPAVLKVAAHILPTAICAISRRC], the MIC was 3.1 µM (≈ 7.94 µg/mL) in [32]; 3.1 µM (≈ 7.94 µg/mL) against Nocardia asteroides; at least 50 µM in test [33]; 3.1 µM (≈ 7.94 µg/mL) in test [34]; at least 100 µM in [35]; 12.5 µM (≈ 32 µg/mL) in the test on Candida glabrata 090902. The compound further came in with an MIC in [36] of 25 µM (≈ 64.1 µg/mL).
